This is an account of results in patent US20080261811A1, “Synergistic Mixtures Exhibiting Insecticidal and Fungicidal Action” (Bayer CropScience AG, priority 2004, published 2008).

The subject of one assay is Myzus persicae. As to the kind of experiment: Myzus persicae test (cabbage leaf dip). The format is in vivo. To be noted: for Kill in % after 6 days: Table A2; for Kill in % after 1 day: Table A1. From the text:
(§1) The expected activity for a given combination of two active compounds can be calculated (cf. COLBY, S. R.; “Calculating Synergistic and Antagonistic Responses of Herbicide Combinations”, Weeds 15, pages 20-22, 1967):
(§2) if • X=the kill rate, expressed in % of the untreated control, when employing active compound A at an application rate of m ppm, • Y=the kill rate, expressed in % of the untreated control, when employing active compound B at an application rate of n ppm, • E=the kill rate, expressed in % of the untreated control, when employing active compounds A and B at application rates of m and n ppm, then
(§3) If the actual insecticidal kill rate is higher than the calculated one, the kill rates of the combination are superadditive, i.e. a synergistic effect is present. In this case, the kill rate that is actually observed has to be higher than the value, calculated using the formula above, for the expected kill rate (E).
(§4) To produce a suitable preparation of active compound, 1 part by weight of active compound is mixed with the stated amounts of solvent and emulsifier, and the concentrate is diluted with emulsifier-containing water to the desired concentration.
Cabbage leaves (Brassica oleracea) which are heavily infested by the green peach aphid (Myzus persicae) are treated by being dipped into the preparation of active compound of the desired concentration.
After the desired period of time, the kill in % is determined. 100% means that all aphids have been killed; 0% means that none of the aphids have been killed. The determined kill rates are entered into Colby's formula.

The test system of the next assay is Phaedon cochleariae. Put plainly: Phaedon cochleariae larvae test (cabbage leaf dip). The class given is in vivo. To be noted: for Kill in % after 6 days: Table B2; for Kill in % after 4 days: Table B1.
Text: as §1, §2, §3, §4
Cabbage leaves (Brassica oleracea) are treated by being dipped into the preparation of active compound of the desired concentration and populated with larvae of the mustard beetle (Phaedon cochleariae) while the leaves are still moist.
After the desired period of time, the kill in % is determined. 100% means that all beetle larvae have been killed; 0% means that none of the beetle larvae have been killed. The determined kill rates are entered into Colby's formula.

On to `COC(=O)[C@@H](C)N(C(=O)Cc1ccccc1)c1c(C)cccc1C` [benalaxyl M, methyl N-(phenylacetyl)-N-(2,6-xylyl)-D-alaninate], for which the “Kill in % after 6 days” value with Myzus persicae (500 ppm) and in the assay with Phaedon cochleariae (500 ppm) was 0% throughout.
As to `COC(=O)C(C)N(C(=O)Cc1ccccc1)c1c(C)cccc1C` (stereo not shown) [benalaxyl], the “Kill in % after 6 days” value with Phaedon cochleariae (500 ppm) is reported as 0%.
Turning to `CN/C(=N\[N+](=O)[O-])NCc1cnc(Cl)s1` [clothianidin], in the assay on Myzus persicae (0.8 ppm), the “Kill in % after 1 day” value is reported as 45% and the “Kill in % after 6 days” value came out at 35%. Also, in the assay with Phaedon cochleariae (4 ppm), the “Kill in % after 4 days” value is 40% and the “Kill in % after 6 days” value came out at 60%.
On to `COCC(=O)N(c1c(C)cccc1C)[C@H](C)C(=O)OC` [metalaxyl M], for which the “Kill in % after 1 day” value in the assay on Myzus persicae (500 ppm) worked out at 0%. Also, the “Kill in % after 4 days” value in the assay with Phaedon cochleariae (500 ppm) was found to be 0%.
As to `COCC(=O)N(c1c(C)cccc1C)C(C)C(=O)OC` (stereo not shown) [metalaxyl], the “Kill in % after 1 day” value with Myzus persicae (500 ppm) came to 0%.
